Calls of active or inactive are those of the source. The rule behind the calls is not given here.
Experiments:
[1] = target: T1, Poly [ADP-ribose] polymerase 1 (Homo sapiens, UniProt P09874); experiment: Inhibition of PARP1 in human SW1990 cells assessed as reversal of Olaparib-induced PARP1 accumulation in nucleus at 1 uM after 4 days by Western blot analysis; type: cell-based; details: time 4.0 day
Mus musculus [2] = experiment: Toxicity in BALB/c mouse xenografted with human SW1990 cells assessed as lung damage at 15 mg/kg, ip administered for 28 consecutive days by H and E staining based […] microscopic analysis; type: organism-based; details: in vivo, 672 h, time 28 day
Mus musculus [3] = experiment: Toxicity in BALB/c mouse xenografted with human SW1990 cells assessed as liver damage at 15 mg/kg, ip administered for 28 consecutive days by H and E staining based […] microscopic analysis; type: organism-based; details: in vivo, 672 h, time 28 day
Mus musculus [4] = experiment: Toxicity in BALB/c mouse xenografted with human SW1990 cells assessed as heart damage at 15 mg/kg, ip administered for 28 consecutive days by H and E staining based […] microscopic analysis; type: organism-based; details: in vivo, 672 h, time 28 day
Mus musculus [5] = experiment: Toxicity in BALB/c mouse xenografted with human SW1990 cells assessed as heart damage at 15 mg/kg, ip administered for 28 consecutive days in presence of 45 mg/kg Olaparib; type: organism-based; details: in vivo, 672 h, time 28 day
Mus musculus [6] = experiment: In vivo inhibition of PARP1 expression in human […] cells xenografted in BALB/c mouse assessed as reversal of Olaparib-induced PARP1 accumulation at 15 mg/kg, ip administered for 28 consecutive days in presence of 45 mg/kg Olaparib by immunohistochemical analysis; type: functional, organism-based; details: time 28.0 day
SW1990 [7] = experiment: Induction of apoptosis in human SW1990 cells assessed as necrotic cells at 1 uM after 4 days in presence of 3 uM Olaparib by Annexin V-FITC and propidium iodide staining based flow cytometry (reference value: 1.89%); type: functional; details: time 4 day
SW1990 [8] = experiment: Induction of cell cycle arrest in human SW1990 cells assessed as accumulation of cells at G0/G1 phase at 4 uM incubated for 4 days by propidium iodide staining based flow cytometry (reference value: 64.79%); type: functional; details: time 4 day
SW1990 [9] = experiment: Induction of cell cycle arrest in human SW1990 cells assessed as accumulation of cells at S phase at 4 uM incubated for 4 days by propidium iodide staining based flow cytometry (reference value: 29.32%); type: functional; details: time 4 day
SW1990 [10] = experiment: Induction of cell cycle arrest in human SW1990 cells assessed as accumulation of cells at S phase at 1 uM incubated for 4 days in presence of 3 uM Olaparib by propidium iodide staining based flow cytometry (reference value: 29.32%); type: functional; details: time 4 day
Mus musculus [11] = experiment: Inhibition of homologous recombinant repair in human SW1990 cells xenografted in BALB/c mouse assessed as reduction in c-Myc expression at 45 mg/kg, ip after 4 days by immunohistochemical analysis; type: functional, organism-based; details: time 4.0 day
[12] = target: T1, Poly [ADP-ribose] polymerase 1; experiment: Inhibition of PARP1 (unknown origin) incubated for 45 mins in presence of biotinylated-NAD+ by microplate reader analysis
[13] = target: Poly [ADP-ribose] polymerase 2 (Homo sapiens, UniProt Q9UGN5); experiment: Inhibition of recombinant PARP2 (unknown origin) incubated for 45 mins in presence of biotinylated-NAD+ by ELISA
Chain of Poly [ADP-ribose] polymerase 2 (Q9UGN5 whole entry): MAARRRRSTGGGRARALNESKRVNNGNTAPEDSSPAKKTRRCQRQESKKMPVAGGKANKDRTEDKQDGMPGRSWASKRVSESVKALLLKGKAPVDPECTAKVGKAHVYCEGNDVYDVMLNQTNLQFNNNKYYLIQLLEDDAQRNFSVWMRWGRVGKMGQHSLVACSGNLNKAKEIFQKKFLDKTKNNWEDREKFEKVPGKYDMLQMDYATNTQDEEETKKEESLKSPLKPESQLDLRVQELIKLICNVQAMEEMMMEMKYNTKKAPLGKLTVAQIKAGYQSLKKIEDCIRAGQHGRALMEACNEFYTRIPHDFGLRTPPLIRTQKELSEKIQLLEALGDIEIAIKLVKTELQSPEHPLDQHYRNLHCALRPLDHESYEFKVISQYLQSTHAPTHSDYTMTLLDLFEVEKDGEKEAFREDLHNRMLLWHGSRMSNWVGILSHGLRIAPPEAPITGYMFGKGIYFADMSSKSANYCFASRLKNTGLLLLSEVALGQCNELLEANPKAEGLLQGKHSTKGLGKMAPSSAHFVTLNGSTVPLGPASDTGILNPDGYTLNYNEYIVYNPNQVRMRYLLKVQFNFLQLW

[14] = target: Bromodomain-containing protein 3 (Homo sapiens, UniProt Q15059); experiment: Inhibition of recombinant BRD3 BD2 (unknown origin) incubated for 120 mins by TR-FRET assay
Chain of Bromodomain-containing protein 3 (Q15059 whole entry): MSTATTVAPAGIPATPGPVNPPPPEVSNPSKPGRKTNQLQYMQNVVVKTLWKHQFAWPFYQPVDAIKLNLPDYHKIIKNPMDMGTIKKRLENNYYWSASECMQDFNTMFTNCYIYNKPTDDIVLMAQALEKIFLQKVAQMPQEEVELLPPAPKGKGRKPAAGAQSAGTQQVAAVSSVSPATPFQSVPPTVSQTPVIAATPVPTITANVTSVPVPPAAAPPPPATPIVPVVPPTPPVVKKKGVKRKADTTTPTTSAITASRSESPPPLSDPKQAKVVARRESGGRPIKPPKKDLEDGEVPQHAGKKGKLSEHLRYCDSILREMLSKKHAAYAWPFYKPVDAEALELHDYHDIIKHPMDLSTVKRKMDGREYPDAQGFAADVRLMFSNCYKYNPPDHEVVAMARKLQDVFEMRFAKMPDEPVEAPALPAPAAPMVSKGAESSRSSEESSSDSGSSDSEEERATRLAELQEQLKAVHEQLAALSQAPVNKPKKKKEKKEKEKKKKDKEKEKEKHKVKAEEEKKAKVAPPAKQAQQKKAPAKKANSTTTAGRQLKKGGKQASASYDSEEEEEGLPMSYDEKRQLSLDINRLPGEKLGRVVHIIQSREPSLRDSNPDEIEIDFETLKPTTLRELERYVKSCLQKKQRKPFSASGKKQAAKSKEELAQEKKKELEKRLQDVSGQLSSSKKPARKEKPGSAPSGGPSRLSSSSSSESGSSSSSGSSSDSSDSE

Mus musculus [15] = experiment: Inhibition of homologous recombinant repair in human SW1990 cells xenografted in BALB/c mouse assessed as reduction in FOXM1 expression at 45 mg/kg, ip after 4 days by immunohistochemical analysis; type: functional, organism-based; details: time 4.0 day
[16] = target: Bromodomain-containing protein 4 (Homo sapiens, UniProt O60885); experiment: Inhibition of BRD4 expression in human SW1990 cells at 1 uM after 4 days by Q-PCR analysis; type: cell-based; details: time 4.0 day
Mus musculus [17] = experiment: Toxicity in BALB/c mouse xenografted with human SW1990 cells assessed as effect on body weight at 45 mg/kg, ip administered for 28 consecutive days; type: organism-based; details: in vivo, 672 h, time 28 day
Mus musculus [18] = experiment: Toxicity in BALB/c mouse xenografted with human SW1990 cells assessed as lung damage at 45 mg/kg, ip administered for 28 consecutive days by H and E staining based […] microscopic analysis; type: organism-based; details: in vivo, 672 h, time 28 day
Mus musculus [19] = experiment: Toxicity in BALB/c mouse xenografted with human SW1990 cells assessed as spleen damage at 45 mg/kg, ip administered for 28 consecutive days by H and E staining based […] microscopic analysis; type: organism-based; details: in vivo, 672 h, time 28 day
Mus musculus [20] = experiment: Toxicity in BALB/c mouse xenografted with human SW1990 cells assessed as liver damage at 45 mg/kg, ip administered for 28 consecutive days by H and E staining based […] microscopic analysis; type: organism-based; details: in vivo, 672 h, time 28 day
Mus musculus [21] = experiment: In vivo inhibition of PARP1 expression in human […] cells xenografted in BALB/c mouse at 45 mg/kg, ip administered for 28 consecutive days by immunohistochemical analysis; type: functional, organism-based; details: time 28.0 day
Mus musculus [22] = experiment: In vivo inhibition of BRD4 expression in human […] cells xenografted in BALB/c mouse at 45 mg/kg, ip administered for 28 consecutive days by immunohistochemical analysis; type: functional, organism-based; details: time 28.0 day
SW1990 [23] = experiment: Induction of apoptosis in human SW1990 cells assessed as early apoptotic cells at 2 uM after 4 days by Annexin V-FITC and propidium iodide staining based flow cytometry (reference value: […]%); type: functional; details: time 4 day
SW1990 [24] = experiment: Induction of apoptosis in human SW1990 cells assessed as late apoptotic cells at 2 uM after 4 days by Annexin V-FITC and propidium iodide staining based flow cytometry (reference value: 6.22%); type: functional; details: time 4 day
SW1990 [25] = experiment: Induction of cell cycle arrest in human SW1990 cells assessed as accumulation of cells at G2/M phase at 1 uM incubated for 4 days by propidium iodide staining based flow cytometry (reference value: 5.89%); type: functional; details: time 4 day
Mus musculus [26] = experiment: Effect on cell cycle progression in human SW1990 cells xenografted in BALB/c mouse assessed as reduction in CDK6 expression at 45 mg/kg, ip after 4 days by Western blot analysis; type: functional, organism-based; details: time 4.0 day
SW1990 [27] = experiment: Effect on cell cycle progression in human SW1990 cells assessed as reduction in CDK6 expression at 1 to 2 uM after 4 days by Western blot analysis; type: functional, cell-based; details: dose 1-2 µM, time 4.0 day
SW1990 [28] = experiment: Inhibition of homologous recombinant repair in human SW1990 cells assessed as increase in […] expression at 1 to 2 uM after 4 days by Q-PCR analysis; type: functional, cell-based; details: dose 1-2 µM, time 4.0 day
SW1990 [29] = experiment: Induction of autophagy in human SW1990 cells assessed as reduction in p62 expression at 1 to 2 uM incubated for 4 days by immunofluorescence assay; type: functional, cell-based; details: dose 1-2 µM, time 4.0 day
SW1990 [30] = experiment: Induction of autophagy in human SW1990 cells assessed as increase in Beclin1 expression at 1 to 2 uM incubated for 4 days by immunofluorescence assay; type: functional, cell-based; details: dose 1-2 µM, time 4.0 day
SW1990 [31] = experiment: Induction of autophagy in human SW1990 cells xenografted in BALB/c mouse assessed as increase in ATG5 expression at 45 mg/kg, ip after 4 days by Western blot analysis; type: functional, organism-based; details: time 4.0 day
SW1990 [32] = experiment: Induction of autophagy in human SW1990 cells xenografted in BALB/c mouse assessed as increase in LC3B expression at 45 mg/kg, ip after 4 days by Q-PCR analysis; type: functional, organism-based; details: time 4.0 day

T1 sequence (P09874 whole entry): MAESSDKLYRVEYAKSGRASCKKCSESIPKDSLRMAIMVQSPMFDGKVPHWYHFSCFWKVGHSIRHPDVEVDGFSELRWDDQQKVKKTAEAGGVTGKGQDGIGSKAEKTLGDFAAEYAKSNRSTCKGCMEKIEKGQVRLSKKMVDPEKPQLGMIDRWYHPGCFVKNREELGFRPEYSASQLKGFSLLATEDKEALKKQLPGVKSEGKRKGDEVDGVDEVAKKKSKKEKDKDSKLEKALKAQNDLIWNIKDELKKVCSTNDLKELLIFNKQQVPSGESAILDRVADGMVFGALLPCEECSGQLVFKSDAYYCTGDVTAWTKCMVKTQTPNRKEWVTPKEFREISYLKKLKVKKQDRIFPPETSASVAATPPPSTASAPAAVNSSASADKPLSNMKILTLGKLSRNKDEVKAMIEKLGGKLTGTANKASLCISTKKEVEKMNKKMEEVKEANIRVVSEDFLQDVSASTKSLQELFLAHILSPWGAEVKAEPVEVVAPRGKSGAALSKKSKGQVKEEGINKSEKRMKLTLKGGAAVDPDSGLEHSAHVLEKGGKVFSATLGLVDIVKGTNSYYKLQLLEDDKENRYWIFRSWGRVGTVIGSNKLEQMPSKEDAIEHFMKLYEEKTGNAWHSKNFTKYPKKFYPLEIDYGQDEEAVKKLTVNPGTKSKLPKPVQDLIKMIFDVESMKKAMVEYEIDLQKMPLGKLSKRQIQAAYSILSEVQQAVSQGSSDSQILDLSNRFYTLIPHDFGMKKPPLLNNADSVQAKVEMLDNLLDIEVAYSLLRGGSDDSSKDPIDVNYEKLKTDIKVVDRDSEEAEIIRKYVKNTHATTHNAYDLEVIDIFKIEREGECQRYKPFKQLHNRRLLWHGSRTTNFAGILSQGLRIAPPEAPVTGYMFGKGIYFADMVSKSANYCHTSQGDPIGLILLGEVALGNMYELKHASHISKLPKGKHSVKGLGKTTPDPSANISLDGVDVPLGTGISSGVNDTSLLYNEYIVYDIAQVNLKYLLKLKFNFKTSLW

With `Cc1sc2c(c1C)C(c1ccc(Cl)cc1)=N[C@@H](CC(=O)OC(C)(C)C)c1nnc(C)n1-2` the inhibition [1] was “Active”, the Activity (Mus musculus [2]) was “Non-Toxic” and the Activity (Mus musculus [3]) was “Non-Toxic”. The Activity (Mus musculus [4]) was “Non-Toxic”, the Activity (Mus musculus [5]) was “Non-Toxic” and the Activity (Mus musculus [6]) was “Active”. The Activity (SW1990 [7]) was 5.53%, the Activity (SW1990 [8]) was 75.06% and the Activity (SW1990 [9]) was 19.43%. For the same compound, the Activity (SW1990 [10]) was 19.33%.

`CC[C@@H]1C(=O)N(C)c2cnc(N(C)c3ccc(-c4nc5c(C(N)=O)cccc5[nH]4)cc3OC)nc2N1C1CCCC1` was tested, and the inhibition (Mus musculus [11]) was “Active”, the IC50 [12] was 13 nM and the IC50 [13] was 4.7 nM. The IC50 [14] was 123 nM, the inhibition (Mus musculus [15]) was “Active” and the inhibition [16] was “Active”. For the same compound, the Activity (Mus musculus [17]) was “Non-Toxic”, the Activity (Mus musculus [18]) was “Non-Toxic” and the Activity (Mus musculus [19]) was “Non-Toxic”. The Activity (Mus musculus [20]) was “Non-Toxic”, the Activity (Mus musculus [21]) was “Active” and the Activity (Mus musculus [22]) was “Active”. It also gave an Activity (SW1990 [23]) of 2.81%, an Activity (SW1990 [24]) of 40.3% and an Activity (SW1990 [25]) of 10.5%. For the same compound, the Activity (Mus musculus [26]) was “Active”, the Activity (SW1990 [27]) was “Active” and the inhibition (SW1990 [28]) was “Active”. The Activity (SW1990 [29]) was “Active”, the Activity (SW1990 [30]) was “Active” and the Activity (SW1990 [31]) was “Active”. For the same compound, the Activity (SW1990 [32]) was “Active”.

From ChEMBL document CHEMBL5053549, “Discovery of Potent and Novel Dual PARP/BRD4 Inhibitors for Efficient Treatment of Pancreatic Cancer” (J Med Chem, 2021)
